{
  "source": "patent US11931374B2",
  "about": "“Adenosine receptor modulators for the treatment of circadian rhythm disorders” (OXFORD UNIVERSITY INNOVATION LIMITED, priority 2016, dated 2024)",
  "key": {"[1]": {"system": "Per2::Luc U2OS cells", "assay": "Per2::Luc cell based circadian assay", "conditions": "Per2::Luc U2OS cells, dose response", "method": "U2OS cells stably transfected with a Per2::Luc reporter were cultured in DMEM supplemented with 10% FBS. For siRNA- and drug-based experiments, cells were seeded at 5,000 per well into white 384 well plates and transfected with 20 nM siRNA the next day. 2 days later, the cells were synchronized with 100 nM dexamethasone and the medium was replaced with phenol-red free DMEM supplemented with B-27 and 100 µM luciferin potassium salt, requisite drugs formulated in DMSO as a 1000× stock was added, and then sealed. Per2::Luc rhythms were recorded from a BMG Labtech Fluostar Omega plate reader maintained at 36° C. and readings taken from each well every hour. Data were then analysed using either Multicycle or Brass rhythm analysis software.\nPeriod2::Luciferase (Per2::Luc) stable U2OS transfects were cultured, as described above. A Greiner Bio-One 384 Well Plate (Polystyrene, F-bottom), was then seeded at 6000 cells per 50 μl well. Following a 24 hour period, the cells were treated with 0.1% dexamethasone, a glucocorticoid hormone analogue known to reset intracellular circadian rhythms, for 1 hour. Subsequently, the dexamethasone-containing medium was removed, the cells were washed with PBS and luciferin and test drug containing medium was added. The cells were then assayed for luminescence over a period of 96 hours in the BMG FLUOstar OPTIMA Microplate Reader to observe the periodicity and amplitude of the luminescence values."}, "[2]": {"system": "Per1", "assay": "Per1 mRNA levels in U2OS cells by qPCR", "type": "cell-based", "method": "(§1) Total RNA was extracted using the microRNeasy column method (Qiagen, Hilden, Germany). Quality and quantity of RNA were measured using an Agilent Bioanalyzer and a Nanodrop1000 (Thermo Fisher Scientific, Waltham, MA USA), respectively.\n(§2) RNA samples were prepared as described for microarray hybridisation. cDNA was synthesized with a qScript cDNA synthesis kit (Quanta Biosciences, Gaithersburg, MD), and quantitative PCR (qPCR) was conducted with Sybr green I and an SDS7700 thermal cycler (Applied Biosystems, Foster City, CA). Relative quantification of transcript levels was done as described previously (Peirson et al., Nucleic Acids Res. 2003 Jul. 15; 31(14):e73.). The geometric mean of a minimum of three housekeeping genes was used for normalization (Gapdh, ActB, GusB and Rps9 for example).\nCells from the U2OS (HTB-96) line were obtained, tested and identified. The cells were cultured in T-75 flasks, in Dulbecco's modified Eagle medium (DMEM) supplemented with 10% foetal bovine serum (FBS) and 1% penicillin-streptomycin (P/S) at 37° C. in a humidified atmosphere at 5% CO2. The cells were subcultured every 2 to 4 days in a 1:2 to 1:6 ratio, in accordance with the ATCC recommendations. The cells were counted using a haemocytometer, and their viability in a culture was maintained at above 95%, measured with a Presto Blue exclusion assay according to the manufacturer's specifications. Cells were transfected with siRNAs (typically at 50 nM concentrations, sequences as previously listed), the CRE::Luc (pGL4.29[luc2P/CRE/Hygro] Vector, encoding Luc2P […] under the control of a strong cAMP response element (CRE) promoter containing 3 CRE elements within its sequence; Promega) reporter vector or cAMP-GLOSensor plasmid (Promega) as per manufacturer's instructions using either Lipofectamine RNAimax (Invitrogen) or Lipofectamine3000 (Invitrogen)."}, "[3]": {"system": "C57Bl/6 mice", "assay": "Phase shifting of circadian activity in response to a light pulse with drug", "type": "in vivo", "conditions": "light at CT16", "method": "Animals were maintained in a 12 h light (white) 12 h dark (grey) cycle and vehicle was administered just before a 30 min 400 lux light pulse (white bar) at time CT 22 (or 10 hours after lights off). All light cues were then removed to allow the animals free running clock to express. A gap in the lines on the day after the light pulse was administered indicates a phase shift.\nAnimals were maintained in a 12 h light (white) 12 h dark (grey) cycle and IB-MECA (1 mg/kg) was administered just before a 30 min 400 lux light pulse (white bar) at time CT 22 (or 10 hours after lights off).\nAnimals were housed under a reversed 12:12 LD cycle (400 lux from white LED lamps) with food and water ad libitum. For phase-shifting studies, C57Bl/6 mice were maintained on running wheels in light tight chambers on a 12:12 LD cycle (400 lux from white LED lamps) and injected with drug at the indicated time points. The drugs were formulated in a vehicle consisting of 5% Koliphor-HS15 (Sigma-Aldrich, UK) 5% Cyclodextran (Sigma-Aldrich, UK) in 0.9% saline. […] Where measuring phase-shifting, the mice were then placed in DD and allowed to free run for 14 days in DD, running wheel activity data was collected and analysed on Clocklab (Actimetrics, Wilmette, IL). […]"}, "[4]": {"system": "Per1", "assay": "Per1 mRNA within the SCN after intraperitoneal injection", "type": "in vivo, mice", "conditions": "4 h after intraperitoneal injection", "excerpt": "(§3) SCN Tissue Collection: Animals were housed under a 12:12 LD cycle for 2 weeks with food and water ad libitum. Animals then received either a drug injection with a alteration in the light dark cycle as described in the experiment and at set points following drug administration were sacrificed by cervical dislocation. Sham-treated mice not given a light pulse were dissected at each time point. Brains were removed and placed into a brain matrix (Kent Scientific, Torrington CT, USA). Per2::Luc transgenic animals (as reported in Yoo et al, Proc Natl Acad Sci USA. 2004 Apr. 13; 101(15):5339-46) were obtained from Prof Joseph Takahashi, Northwestern University. […]\nas §1\nas §2, with “The geometric mean of a minimum of three housekeeping genes was used for normalization (Gapdh, ActB, GusB and Rps9 for example).” left out"}, "[5]": {"system": "Per2", "assay": "Per2 mRNA within the SCN after intraperitoneal injection", "type": "in vivo, mice", "conditions": "4 h after intraperitoneal injection", "excerpt": "as §3, §1\nas §2, with “The geometric mean of a minimum of three housekeeping genes was used for normalization (Gapdh, ActB, GusB and Rps9 for example).” left out"}},
  "data": [
    {"smiles": "Nc1nc(-c2ccccc2)c2c(n1)-c1cc(OCCN3CCOCC3)ccc1C2=O", "note": "[JNJ40255293, 2-amino-8-[2-(4-morpholinyl)ethoxy]-4-phenyl-5H-indeno[1,2-d]pyrimidin-5-one]", "values": [
      {"measurement": "circadian period length", "setting": "[1]", "result": "increased circadian period length in a dose dependent manner"},
      {"measurement": "Per1 transcription", "setting": "[2]; 4 h post-drug treatment", "result": "significantly increased"},
      {"measurement": "Per1 mRNA", "setting": "[2]; U2OS cell cultures, 10 uM", "result": "Robust increases"},
      {"measurement": "Per1 mRNA levels", "setting": "[2]; U2OS cells, 30 uM", "result": "elevated"},
      {"measurement": "Per1 mRNA levels / expression", "setting": "[2]; U2OS cells, qPCR, concentration not given", "result": "induce the expression of Per1 and Per2"},
      {"measurement": "phase-shifts in response to light", "setting": "[3]", "result": "enhances phase-shifts in response to light at CT16"},
      {"measurement": "Per1 mRNA levels within the SCN", "setting": "[4]", "result": "increase"},
      {"measurement": "Per2 mRNA levels within the SCN", "setting": "[5]", "result": "increase"}
    ]}
  ]
}
